From patent US20200166671A1, “LIPOIC ACID HYDROGELS” (UNIVERSIDADE DE SANTIAGO DE COMPOSTELA, priority 2017, published 2020)

Columns and labels:
[1] = Saturated aqueous ALA solution; type: physicochemical
Description: (§1) The weighed hydrogel discs were introduced in vials containing 10 mL of aqueous ALA solution (saturated, ˜0.8 mg/mL). The vials remained under oscillating agitation (150 osc/min) at 20° C. At times 24 and 48 h, a sample of 3 mL of the loading solution was taken and absorbance was measured at 334 nm (Agilent 8453 UV/VIS, Germany). The amount of ALA loaded for every hydrogel was calculated by the difference between the initial content in the loading solution and the remaining content at the end of the test.

[2] = Andrade et al., Exp Eye Res. 2014; cited from earlier work
peroxidase = settings: Andrade et al., Exp Eye Res. 2014; cited from earlier work
[3] = Demulcent loading of hydrogel discs functionalized with CD; type: physicochemical; settings: 20° C., aqueous demulcent solution
Description: Next, a different demulcent was loaded in each disc functionalized with CD.
The weighed hydrogel discs were placed in 5 or 10 mL of aqueous polysorbate 80 solutions (0.2; 0.5 or 1 mg/mL) and kept at 20° C. under magnetic stirring (80 rpm) for 24 hours. Absorbance of the medium was monitored at 234 nm (Agilent […] UV/Vis spectrophotometer, Germany). The amount of loaded polysorbate 80 was estimated from the difference between the amounts in the loading medium before and after the loading tests.
The weighed hydrogel discs were placed in 5 or 10 mL of aqueous PEG4000 solutions (0.1 mg/mL), kept at 20° C. under magnetic stirring (80 rpm) for 48 hours. Aliquots of loading medium were analyzed by means of HPLC. The loaded amount of PEG4000 was estimated from the difference between the amounts in the loading medium before and after the loading tests.
as §1
The loading results, measured in amount of demulcent for every gram of dry mass of hydrogel, are shown below: […]

Compound | concentration of saturated aqueous ALA solution [1] [µg/mL] | tear production [2] | peroxidase activity (peroxidase) | amount of demulcent for every gram of dry mass of hydrogel ([3]; loading 24 h) [mg/g] | amount of demulcent for every gram of dry mass of hydrogel ([3]; loading 48 h) [mg/g]
O=C(O)CCCC[C@@H]1CCSS1 [α-lipoic acid] | ~800 | increase in tear production | increases peroxidase activity | 57 | 58
Polysorbate 80 |  |  |  | 1 | 
